# In article PMC11611271, “Rapid prediction of key residues for foldability by machine learning model enables the design of highly functional libraries with hyperstable constrained peptide scaffolds” (PLOS Computational Biology, 2024):
# Where a SMILES comes first, the peptide text is derived from it. Bridges are numbered along the chain shown (N, C = ends).
# Columns and labels:
# [1] = system: VEGF; test: phage spot ELISA on VEGF; format: binding; settings: for S/N: phage spot ELISA signal/noise; for S/N / ELISA: S3 Table sheet VEGF; for ELISA: phage spot ELISA signal
# From the text: (§1) To determine the performance of the libraries for ligand discovery we chose a panel of eight protein targets, which have no structural homology and a wide mass range (Fig 7C). We screened these eight targets with solution panning strategy and two additional plate panning for CD8α/β and CD28, thus ten panning campaigns in total. We consider clones showing spot phage ELISA signal > 0.3 and signal/noise ratio > 2 as positive hits. At least one binding hit was discovered for nine out of the ten panning campaigns, surpassing the success rate of the best DCP scaffolds reported previously. We also obtained the NGS data for these screening and the ranking of clones for their enrichment along the rounds of screening was analyzed and considered the top-ranking clones as potential hits. Based on their sequence diversity we selected 16 potential hits spanning five protein targets for peptide synthesis in their linear form. Seven of these are hits with positive phage ELISA signal and nine were selected based on NGS ranking without spot ELISA available. Subsequently, we conducted in vitro folding experiments on these peptides in various buffers. We observed a strong propensity for spontaneous folding regardless of the buffer condition. All HCP hits tested successfully folded into three-disulfide-containing product within two days in a universal buffer system (PBS, pH 7.4, 50% DMSO) without the need for a redox pair, as shown in Fig 8A. The binding of these folded peptides to their respective target proteins was confirmed using SPR (Table 4 and S1 Data) and binding kinetics are exemplified by the high-affinity peptide 5ji4-CRD7-2 (see Fig 8B). Among seven selected ELISA-positive hits, all of them were successfully synthesized and in vitro folded with three disulfide bonds and five were proven to be validated binders by SPR (Table 4). Nine peptides selected from the NGS ranking were synthesized and folded with the expected number of disulfide bonds and five of them bound to their target with affinities in the μM range as determined by SPR (Table 4). In general, binding affinities for these SPR-validated initial hits are weak, with Kd values in the micromolar range and fast on- and off-rates. There are two exceptions with binding affinities in the nanomolar range.
# (§2) The 5ji4 libraries were constructed following the Kunkel mutagenesis method and the solution panning protocol was followed as previously described. After four to five rounds of binding selection, while eluted pool was subjected to NGS analysis, individual phage clones were also picked and analyzed with phage spot ELISA. Positive clones were subjected to SANGER sequencing.
# [2] = system: CD28; test: phage spot ELISA on CD28; format: binding; settings: S3 Table sheet CD28-1 (panning campaign 1); for S/N: phage spot ELISA signal/noise; for ELISA: phage spot ELISA signal
# From the text: as §1, §2
Compound,S/N [1],ELISA [1],also measured
"CC(C)C[C@@H]1NC(=O)[C@H](CCCNC(=N)N)NC(=O)[C@H](CCCCN)NC(=O)[C@@H]2CSSC[C@H](NC(=O)[C@H](CCC(=O)O)NC(=O)[C@@H](NC(=O)[C@@H]3CCCN3)CSSC[C@@H](C(=O)NCC(=O)O)NC(=O)[C@H](Cc3c[nH]cn3)NC(=O)[C@H](C(C)C)NC(=O)[C@H](CCCNC(=N)N)NC(=O)[C@@H]3CSSC[C@H](NC1=O)C(=O)N[C@@H](Cc1c[nH]c4ccccc14)C(=O)NCC(=O)N[C@@H](Cc1ccccc1)C(=O)NCC(=O)N[C@@H](CCC(N)=O)C(=O)N[C@@H](CO)C(=O)N[C@@H](CC(=O)O)C(=O)N3)C(=O)N[C@@H](CC(=O)O)C(=O)N[C@@H](C(C)C)C(=O)N[C@@H](CC(N)=O)C(=O)N[C@@H](C(C)C)C(=O)N[C@@H](CCC(=O)O)C(=O)N[C@@H]([C@@H](C)O)C(=O)N[C@@H](Cc1ccc(O)cc1)C(=O)N[C@@H]([C@@H](C)O)C(=O)N[C@@H](C(C)C)C(=O)N[C@@H](CO)C(=O)N[C@@H](CO)C(=O)N[C@@H](CO)C(=O)N[C@@H](CCC(=O)O)C(=O)N[C@@H](CCC(=O)O)C(=O)N2 [5ji4-VEGF-3] (H-PCECDVNVETYTVSSSEECKRLCWGFGQSDCRVHCG-OH; disulfide 2-35, 4-19, 23-31)",–,–,"ELISA signal ([1]; phage spot ELISA of the clone, positive hit: signal > 0.3 and signal/noise > 2): 3.07; ELISA s/n ([1]; phage spot ELISA signal/noise ratio): 32.18"
"LECSHLQMFVIYNSSEECERLCRKLGVTSCRVHCG [CD28-1 clone 10, phage clone, 5JI4 library, CD28-1 panning]",–,–,S/N [2]: 2.405; ELISA [2]: 0.202
"PANAVIRTWIIFASSEECERLCRKLGVTNCRVHCG [CD28-1 clone 5, phage clone, 5JI4 library, CD28-1 panning]",–,–,S/N [2]: 3.189; ELISA [2]: 0.3
"PCECDHMQYFILYESSEECERLCRKLGVTNCRVHCG [CD28-1 clone 7, phage clone, 5JI4 library, CD28-1 panning]",–,–,S/N [2]: 2.516; ELISA [2]: 0.234
"PCECDVNGETYTVSSSEECERPCSWNEAFSCRVHCG [CD28-1 clone 15, phage clone, 5JI4 library, CD28-1 panning]",–,–,S/N [2]: 2.576; ELISA [2]: 0.219
"PCECDVNGETYTVSSSEGCERLCSWDQGKWCRVHCG [CD28-1 clone 13, phage clone, 5JI4 library, CD28-1 panning]",–,–,S/N [2]: 2.33; ELISA [2]: 0.247
"PCECDVNGETYTVSSSEGCERLCSWDTRRMCRVHCG [CD28-1 clone 14, phage clone, 5JI4 library, CD28-1 panning]",–,–,S/N [2]: 2.852; ELISA [2]: 0.231
"PCECDVNVETYTVSSSEECKRLCWGFGQSDCRVHCG [VEGF clone 26, phage clone, 5JI4 library, VEGF panning]",30.2373,3.568,–
"PCECFFNAVKVGWSSSEECERLCRKLGVTNCRVHCG [VEGF clone 13, phage clone, 5JI4 library, VEGF panning]",35.8857,3.768,–
"PCECFILGMAVGQSSSEECERLCRKLGVTNCRVHCG [VEGF clone 23, phage clone, 5JI4 library, VEGF panning]",29.8545,3.284,–
"PCECFMMEVKVGTGSSEECERLCRKLGVTNCRVHCG [VEGF clone 14, phage clone, 5JI4 library, VEGF panning]",42.5632,3.703,–
"PCECFMYDILVGLASSEECERLCRKLGVTNCRVHCG [VEGF clone 2, phage clone, 5JI4 library, VEGF panning]",30.9,6.00,–
"PCECFMYGVYVGHSSSEACERLCRKLGVTNCRVHCG [VEGF clone 9, phage clone, 5JI4 library, VEGF panning]",39.95,3.995,–
"PCECHFXGVHVGRSSSEECERLCRKLGVTNCRVHCG [VEGF clone 12, phage clone, 5JI4 library, VEGF panning]",15.0395,3.805,–
"PCECIILNVVVGESSSEECERLCRKLGVTNCRVHCG [VEGF clone 4, phage clone, 5JI4 library, VEGF panning]",2.9,4.32,–
"PCECITKWSDWGFSSSEECERLCRKLGVTNCRVHCG [VEGF clone 24, phage clone, 5JI4 library, VEGF panning]",9.024,0.767,–
"PCECIXXDSFVGKSSSEECERLCRKLGVTNCRVHCG [VEGF clone 25, phage clone, 5JI4 library, VEGF panning]",3.092,0.269,–
"PCECLMYGHHVGSASSEECERLCRKLGVTNCRVHCG [VEGF clone 19, phage clone, 5JI4 library, VEGF panning]",36.6559,3.409,–
"PCECLMYRVXVGHSSSEACERLCRKLGVTNCRVHCG [VEGF clone 3, phage clone, 5JI4 library, VEGF panning]",42.6,4.34,–

Compound,S/N [1],ELISA [1],also measured
"PCECMFHGVPVGFSSSEECERLCRKLGVTNCRVHCG [VEGF clone 8, phage clone, 5JI4 library, VEGF panning]",37.2,4.06,–
"PCECPRWWSHDGGYSSEECERLCRKLGVTNCRVHCG [VEGF clone 11, phage clone, 5JI4 library, VEGF panning]",38.9,3.89,–
"PCECQENTTFIIYSSSEECERLCRKLGVTNCRVHCG [CD28-1 clone 12, phage clone, 5JI4 library, CD28-1 panning]",–,–,S/N [2]: 1.979; ELISA [2]: 0.192
"PCECQFYGTMVGWSSSEECERLCRKLGVTNCRVHCG [VEGF clone 20, phage clone, 5JI4 library, VEGF panning]",37.3956,3.403,–
"PCECVVLDTVVGKASSEECERLCRKLGVTNCRVHCG [VEGF clone 17, phage clone, 5JI4 library, VEGF panning]",37.5957,3.534,–
"PCECWFYDALVGWTSSEECERLCRKLGVTNCRVHCG [VEGF clone 7, phage clone, 5JI4 library, VEGF panning]",41.3,4.13,–
"PCECWMYHTNVGHGSSEECERLCRKLGVTNCRVHCG [VEGF clone 21, phage clone, 5JI4 library, VEGF panning]",29.9279,3.322,–
"PCECYFETTHVGFASSEECERLCRKLGVTNCRVHCG [VEGF clone 18, phage clone, 5JI4 library, VEGF panning]",10.4498,3.438,–
"PCECYFQGVNVGESSSEECERLCRKLGVTNCRVHCG [VEGF clone 16, phage clone, 5JI4 library, VEGF panning]",40.618,3.615,–
"PCECYFQXVKVGESSSEECERLCRKLGVTNCRVHCG [VEGF clone 6, phage clone, 5JI4 library, VEGF panning]",32.5,4.23,–
"PCECYFSNTMVGHSSSEECERLCRNLGVTNCRVHCG [VEGF clone 5, phage clone, 5JI4 library, VEGF panning]",40.6,4.23,–
"PCECYFYDIVVGFSSSEECERLCRKLGVTNCRVHCG [VEGF clone 1, phage clone, 5JI4 library, VEGF panning]",58.3,6.00,–
"PCECYIYNTGAGWGSSEECARLCRKLGVTNCRVHCG [VEGF clone 15, phage clone, 5JI4 library, VEGF panning]",30.6033,3.703,–
"PCECYLPKVMVGFSSSEECERLCRNLGVTNCRVHCG [VEGF clone 10, phage clone, 5JI4 library, VEGF panning]",12.4652,3.939,–
"PCECYMSNVNVGESSSEECERLCRKLGVTNCRVHCG [VEGF clone 22, phage clone, 5JI4 library, VEGF panning]",29.6607,3.322,–
"PCEFARQNVFIVHSSSEECERLCRTLGVTNCRVHCG [CD28-1 clone 8, phage clone, 5JI4 library, CD28-1 panning]",–,–,S/N [2]: 1.6194; ELISA [2]: 0.217
"PCESIQDVWIIHDSSEECERLCRKLGVTNCRVHCG [CD28-1 clone 6, phage clone, 5JI4 library, CD28-1 panning]",–,–,S/N [2]: 2.28; ELISA [2]: 0.244
"PCESQSMQHFIIYNSSEECERLCRKLGVTNCRVHCG [CD28-1 clone 1, phage clone, 5JI4 library, CD28-1 panning]",–,–,S/N [2]: 4.839; ELISA [2]: 0.542
"PCEYQTWRVVIPDASSEECERLCRKLGVTNCRVHCG [CD28-1 clone 3, phage clone, 5JI4 library, CD28-1 panning]",–,–,S/N [2]: 4.407; ELISA [2]: 0.4
